The values below come from patent US5686423A, “Di-and tri-peptide mimetic compounds for Parkinson's disease” (Department of Health, the Executive Yuan, Republic of China, priority 1996, dated 1997).

Residues, ends and D or L forms follow the SMILES beside them.

Data set [1] deals with 6-hydroxydopamine-lesioned male Wistar rats. In words: Rotational behavior of nigrostriatal-lesioned rats elicited by (+)-methamphetamine. The format is in vivo, rat. Conditions: for rotation: control saline 552 ± 47. The text has this:
Anti-Parkinsonism effect was determine by virtue of measuring the change in rotational behavior of 6-hydroxydopamine-lesioned male Wistar rats [Hudson J. L.; Levin. D. R.; Hoffer, B. J. A Sixteen-Channel Automated Rotometer System For Reliable Measurement of Turning Behavior in 6-Hydroxydopamine Lesioned and Transplanted Rats. Cell Transplantation 1993, 2, 507-514; Hudson J. L, Van Horne C. G.; Stromberg I.; Brock. S.; Clayton, J.; Masserano, J.; Hoffer, B. J.; Gerhardt, G. A. Correlation of Apomorphine and Amphetamine Induced Turning With Nigrostriatal Dopamine Content in Unilateral 6-Hydroxydopamine Lesioned Rats. Brain Res. 1993, 626, 167-174].
Twenty male Wistar rats weighing 150-175 grams were used. Within a 36 h window, all rats were lesioned by the same investigator using the following procedure. Surgical anesthesia was produced by i.p. injection of 30 mg/kg of sodium pentobarbtal. The animals were placed in a stereotaxic frame and the skin over the skull was incised and reflected. Bregma was used as the coordinate origin and a burr-hole was placed in the cranium over the injection site. After a small-needle puncture of the dura and lowering into the brain parenchyma, a solution of […] of 6-hydroxydopamine HCl was injected using a microliter syringe and a 26 gauge dome-tipped needle (AP-4.4 mm, ML 1.3 mm. DV -7.8 mm). The needle was removed after a 1 min delay and the wound was closed. Convalescence occurred in home cages with food and water ad libitum for the duration of the experiment.
On each testing day, the rats were placed into rotometer bowls and were allowed to acclimatize for 10 min. They then received a subcutaneous dose of (+)-methamphetamine (4 mg/kg in vehicle) and were allowed to move within the bowls for at least 60 min, or until they stopped turning. The rats were returned to the home cages after the experiment until next testing session.
The degree of dopamine depletion was evaluated by monthly testing of rotational behavior in a multichannel rotometer system after methamphetamine (4 mg/Kg, s.c.) injection.

For data set [2] the following is noted: cited from earlier work.
For data set [3] the following is noted: 37° C., 2 minutes of incubation.
Experimental: Mucosa suspension was prepared from the intestine of male Wistar rats according to the method of Hu et al. [Pharm. […] After abdominal incision the intestinal segment between the beginning of the jejunum and the end of the ileum was removed and everted to let the interior exposed. The mucosal layer was washed with normal saline and then scraped with glass microscope slides. The scraping was collected, diluted 1:9 (v/v) with ice cold isotonic sucrose solution, and ultrasonicated for 200 seconds. The suspension was centrifuged at 2500 rpm for 5 minutes. The supernatant suspension was stored in an ice bath before subjected to degradation study. All the stability studies were conducted right after the mucosa suspension was prepared. One hundred microliter of a methanolic solution of the test compound (1 mg/mL) was diluted with 2.4 mL of an isotonic mannitol buffer solution (pH=6.5) as the stock solution. One hundred microliter of the stock solution was mixed with equal volume of the mucosal suspension. The mixture was incubated in a 37° C. water bath and subjected to sampling at time intervals between zero to 60 minutes. Two hundred microliter of each sampled solution was denatured with MeOH (0.8 mL) and centrifuged at 14000 rpm for 5 minutes. Twenty to one hundred microliters each of the solution was subjected to HPLC assay on a Lichrospher 100 RP-18 column (E. Merck, 5 μm, 250×3.9 mm). […]
The next data set concerns vas deferences. Particulars: continuous perfusion of 1 mg/mL for one min. The procedure: (§1) Each experiment was repeated at least three times. The mean responses before and after drug treatment were compared by means of Student's t test, with p<0.05, indicating significance. The contractile force of both pulmonary artery and vas deferences was elicited after continuous perfusion of dopamine (1 mg/mL) for one min.
(§2) Male guinea pigs (250-350 g) were stunned and bled. The vas deferences and pulmonary artery were isolated. A piece of the smooth muscle (about 1 mm wide and 7 mm long) was dissected. The isolated part was mounted vertically on an organ bath (1 mL capacity), kept at 35° C. and superfused with a physiological solution at a constant rate of about 2 mL /min (35° C.). The normal physiological solution had the following composition: NaCl (117 mM), KCl (5.9 mM), CaCl2 (2.4 mM), MgCl2 (1.2 mM), D-glucose (11.8 mM) and Tris 20 (pH 7.4 at 35° C.), aerated with 100% oxygen. Drugs tested were perfused for one min and then superfused with normal physiological solution or otherwise indicated. Tension was recorded isometrically by means of a Grass FT03 tranducer connected to a Grass model 7E polygraph or by a Gould UC2 transducer connected to a Gould 2200S recorder. Each experiment was repeated at least three times with different preparations.

The test system of the next data set is pulmonary artery. Conditions: continuous perfusion of 1 mg/mL for one min. As to the method: as §1, §2
The conditions of data set [4]: rat jejunal perfusion, perfusate 0.1 mM; for plasma conc. (mean ± s.e.m): blood drawn after 90 min perfusion.
Experimental: The intestinal absorption of the prodrugs was then investigated by measuring the plasma concentration in rats upon in situ single-pass rat jejunal perfusion, and by determining the fraction of absorption in rabbits with data obtained from single-dose intra-artery injection and oral administration.
Perfusion solutions containing 5 mM KCl, 100 mM NaCl, 10 mM MES, 6 mM D-glucose, the testing compound, and 0.02% ascorbic acid as an anti-oxidant, were adjusted to pH 6 with NaOH. Osmolarity, measured by a Wescor 5500 vapor pressure osmometer (Wescor Company, Logan, Utah, U.S.A.), was adjusted to 300±10 mOsm/kg using sodium chloride. […] In order to prevent test compounds from oxidation, perfusion solutions were freshly prepared with nitrogen gas bubbled through for 10 min before each perfusion experiment.
Male Wistar Rats were fasted overnight (16-20 h) prior to anesthesia induced by i.m. injection of urethane (1.5 g/kg body weight). Following induction of anesthesia, rats were put on a heating pat to maintain body temperature. A midline longitudinal incision was made and a 5 to 10 cm jejunal segment was cannulated at the distal end to drain perfusates into collecting tubes. The entire surgical area was then covered with parafilm to minimize temperature reduction through evaporation. Tubing and syringes were covered with aluminum foil to retard the oxidation of testing compounds. Perfusion solution was pumped through the jejunal segment at a flow rate of 0.2 mL/min by a syringe pump (Stoelting, KD Scientific, U.S.A.). The jejunal segment was prewashed initially with drug-free buffer for 10 min and then pumped with test solution. Outlet tubing samples were collected every 10 min for 6 collection periods after water and solute transport reached steady-state. After 90 min perfusion, blood sample (1-2 mL) was drawn by cardiac puncture. The blood samples were centrifuged at 3000 rpm for 10 min, the plasma were separated and stored at -20° C. before analysis. The samples were filtered through 0.2 μm membrane filters before injecting into HPLC system.
Assays of L-dopa and test compounds were performed on HPLC consisting an autosampler (Model 717, Waters, Millipore, Milford, Mass., U.S.A.), a solvent delivery pump (Model 600E, Waters), a tunable absorbence detector (Model 484 or 486, Waters), and a PC 486 computer with a chromatography manager software (Millennium 2010, Millipore). L-Dopa from the perfusate was assayed on a Spheri 5RP-18 column (ABI, 5 μm, 250×4.6 mm) at flow rate of 1.0 mL/min with mobile phase comprising MeOH:0.05M NH4 H2 PO4 buffer (pH 4.6) containing 0.02M sodium 1-pentanesulfonate=10:90 (v/v). […] Standards were injected during each assay. Linearity of standard peak area ratios was validated. Numerical computation on data were performed on Statworks and are represented as mean±standard error of mean (s.e.m) for n experiments. Treatment differences were evaluated by t test.
Data set [5] can be described thus: Single dose oral and intra-artery bioavailability study in rabbits. Conditions: oral vs intra-artery, 10 mg/Kg, six rabbits, mean ± s.e.m.
Experimental: Prodrug 1a was subjected to single dose oral and intra-artery (i.a.) administrations on 6 fasted New Zealand white rabbits for oral bioavailability study.
Single intra-artery dose of prodrug 1a or the parent drug was administered in six fasted New Zealand white rabbits, weighting 2.5-3.0 Kg, via ear artery. Blood samples were withdrawn with heparinized syringes from the contralateral artery at time intervals ranged from 1 min to 3.5 h. Freshly drawn heparinized blood was treated with extraction buffer (1 mol of Tris and 20 g of EDTA per liter, pH 8.6) and then extracted with alumina (100 g). The alumina was extracted with acidic buffer and the extract subjected to HPLC analysis.
After wash-out period, the same rabbits were used for single oral dose administration of prodrug la with a feeding tube. […] Prodrug 1a and dihydroxybenzylamine,used as an internal standard, were detected with electrochemical detector at 0.750 V of oxidation potential. The maximal plasma concentration (Cmax) and the time to the maximal plasma concentration (tmax) were determined. The area under the plasma concentration-time profile (AUC) and the terminal half-life (t1/2) were calculated. Fraction of absorption was calculated from the pharmacokinetic parameters (tmax, Cmax, AUC, t1/2) obtained from oral and intra-artery administrations.
Setting [6] is: i.p. 1-2 hours prior to (+)-methamphetamine.

Take `NC(Cc1ccc(O)c(O)c1)C(=O)O` [L-dopa, 2-amino-3-(3,4-dihydroxyphenyl)propanoic acid]: in data set [1] (4.2 mg/kg i.p., (+)-methamphetamine injected 1 h after treatment), the rotation worked out at 287 ± 86 turns/h. In addition, in data set [2] (Parkinson disease, literature (Olanow et al. 1991)), the “AUCCSF /AUCplasma” value is on record as 12/100. For the same compound, the oral bioavailability in data set [2] (at up to 1000 mg/day) is reported as 33%.

For the compound `NCC(=O)N[C@@H](Cc1ccccc1)C(=O)O` [L-glycine-L-phenylalanine] (H-Gly-Phe-OH), in data set [3], the “fraction degraded in rat intestinal mucosa suspension” value is listed as 81%.

For the compound `NCCc1ccc(O)c(O)c1` [dopamine], the “contraction of vas deferences (resting tension)” value in the data set on vas deferences was “elicited”. Moreover, the “contraction of pulmonary artery (resting tension)” value in the data set with pulmonary artery was “elicited”.

On to D-Phenylglycine-L-serine-L-dopa [2a], for which the “plasma conc. (mean ± s.e.m)” value in data set [4] is on record as 8.49 ± 1.36.

As to D-p-hydroxyphenylglycine-L-dopa [1b], in data set [4], the “plasma conc. (mean ± s.e.m)” value is reported as 0.60 ± 0.01.

Take “D-p-hydroxyphenylglycine-L-proline-L-dopa [compound 2d]”: the rotation in data set [1] (9.6 mg/kg i.p., (+)-methamphetamine injected 1 h after treatment) turned out to be 223 ± 95 turns/h; in data set [1] (9.6 mg/kg i.p., (+)-methamphetamine injected 2 h after treatment) it was 247 ± 67 turns/h. For the same compound, in data set [1] (setting [6]), the “anti-rotation activity compared with L-dopa (in words)” value was “slightly higher than that of L-dopa”. Also, the “effect on (+)-methamphetamine-induced rotation (in words)” value in data set [1] (setting [6]) is listed as “significantly prohibited”.

With “D-p-hydroxyphenylglycine-L-serine-L-dopa [2b]”, in data set [4], the “plasma concentration, fold higher than that of L-dopa” value is given as 60-100 fold and the “plasma conc. (mean ± s.e.m)” value turned out to be 62.1 ± 3.53.

In turn, D-phenylglycine-L-dopa [compound 1a] showed a fraction of absorption in data set [5] of 76 ± 24%. Further, in data set [4], the “plasma concentration, fold higher than that of L-dopa” value is listed as 60-100 fold and the “plasma conc. (mean ± s.e.m)” value is listed as 64.65 ± 5.45.

Consider L-dopa-D-phenylglycine [1c], for which, in data set [4], the “plasma concentration, fold higher than that of L-dopa” value was 60-100 fold and the “plasma conc. (mean ± s.e.m)” value is 104.00 ± 12.98.
